The values below come from patent US12384745B2, “Crystal form of five-membered n heterocyclic compound, and application thereof” (CHIA TAI TIANQING PHARMACEUTICAL GROUP CO., LTD., priority 2019, dated 2025).

A value given as a limit tells only on which side of the number the result lay.

As a reminder, the EC50 is the midpoint of the concentration-response curve. What is called CC50 is the concentration that lowers cell viability or growth by half.

Data set [1] is described as follows: Stability assay of crystalline form (influential factors). Format: physicochemical. On the procedure:
1.1. Preparation of Samples
500 mg of the crystalline form A of the compound of formula I prepared in Example 2 was placed in a dry and clean container, and evenly spread in a thin layer as the test sample. The sample was completely exposed to experimental conditions of influential factors (40° C., 60° C., 75% RH, 92.5% RH, high temperature and high humidity (40° C., 75% RH)). Samples were taken for analysis on day 10. The samples were completely exposed to illumination (visible light of 1,200,000 Lux·hr, UV of 216 W·hr/m^2) at room temperature.
1.2. Chromatographic Conditions
Chromatographic column: Waters XBridge Shield RP18 (4.6 mm×150 mm, 3.5 μm).
The water content was measured by a Mettler V20 system.
1.3. Preparation of Sample Solution
About 12.5 mg of the sample was dissolved with an appropriate amount of a mixed diluent of acetonitrile-water (70:30) for content assay of related substance.

A short description of data set [2]: Plasma protein binding assay, monkey plasma. In kind it is in vitro ADME. On the procedure: (§1) 2.4. Plasma Protein Binding Assay
(§2) Preparation of plasma samples: 5 μL of test compound solution or positive control was added to 495 μL of blank plasma of various species (mouse, rat, dog, monkey and human) to obtain plasma sample solutions at plasma concentrations of 1 μM and 10 μM (in acetonitrile).
(§3) The pretreated dialysis membrane was loaded on a high-throughput equilibrium dialysis system. 100 μL of the plasma sample solution and PBS buffer were added to the two sides (sample side and buffer side) of the dialysis membrane respectively (n=3). The system was sealed with a patch and incubated at 37° C. overnight (100 rpm) to achieve dialysis equilibrium. 50 μL samples were taken from the sample side and the buffer side, and the reaction was terminated with glacial acetonitrile containing an internal standard.
(§4) Sample pretreatment: 450 μL of glacial acetonitrile containing an internal standard was added to 50 μL of the sample from the plasma side for precipitation. The mixture was vortexed for 5 min, and centrifuged (12000 rpm, 4° C.) for 10 min. 75 μL of supernatant was taken and diluted with 75 μL of ultrapure water. After being mixed well, 1 μL of the resulting sample was injected for analysis; 250 μL of glacial acetonitrile containing an internal standard was added to 50 μL of the sample from the PBS side for precipitation. […]

The nature of data set [3]: In vitro stability in rat liver microsomes. In kind it is in vitro ADME. As for the experimental part:
(§5) Experimental Example 3. In Vitro Stability in Liver Microsome A final incubation system of 300 μL contained 30 μL of liver microsomes (protein concentration: 0.15 mg/mL, Corning), 30 μL of NADPH+MgCl2, 3 μL of substrate (in acetonitrile) and 237 μL of PBS. Samples were prepared in duplicate of 0.3 mL for each specie. For each tube, the 270 μL mixed solution of substrates and enzyme and the NADPH solution were separately pre-incubated at 37° C. for 5 min. The 30 μL mixed solution of NADPH+MgCl2 was added for reaction. 50-μL samples were taken at 0 min, 10 min, 30 min and 60 min, and 300 μL of glacial acetonitrile containing an internal standard was added to the samples to terminate the reaction. Sample pretreatment: 300 μL of glacial acetonitrile containing internal standard diazepam was added to 50 μL of the incubated sample for precipitation. The mixture was vortexed for 5 min, and centrifuged (12000 rpm, 4° C.) for 10 min. 75 μL of supernatant was added to a 96-well plate and diluted with 75 μL of ultrapure water. After being mixed well, 0.5 μL of the resulting sample was injected to a LC-MS/MS system for analysis.
On the technique in general: Liver microsomes are vesicles of endoplasmic reticulum, rich in cytochrome P450 enzymes.

Data set [4] deals with HBV DNA in HepG2.2.15 cells. Briefly: In-vitro inhibitory activity against HBV DNA in HepG2.2.15 cells. In kind it is cell-based. As to conditions: Hepatitis B virus, 144 h, 6 days treatment, intracellular capsid HBV DNA by qPCR, read-out: EC50, anti-HBV activity. As for the experimental part:
(§6) 2.1. In-vitro Inhibitory Activity Against HBV DNA in Cells
(§7) A vial of HepG2.2.15 cells (Wuhan Institute of Virology) or HepAD38 cells in good condition and at logarithmic growth phase was washed once with 5 mL of PBS. 3 mL of pancreatin was added. The cells were digested at room temperature for 5 min, then 2 mL of pancreatin was discarded. The cells were further digested in a cell incubator for 10 min, and observed under a microscope (whether the cells are round in shape, and whether the cells are separated or adhered). 10 mL of complete medium was added to terminate the digestion. The cells was mixed using a pipette to obtain a single cell suspension. 10 μL of the cell suspension was loaded on a cell counter for counting, and diluted with the complete medium to adjust the cell density to 1×10^5 cells/mL. The cells were seeded on a 24-well plate (pre-coated with 50 μg/mL Collagen I solution) at 1 mL/well using a multi-channel pipette and cultured in a thermostatic CO2 incubator for 48 h.
(§8) A solution of the compound dissolved in DMSO was diluted to 10 concentrations in a 2-fold gradient using complete medium. […] HBV DNA in the intracellular viral capsid was measured by real-time fluorescent quantitative PCR. The inhibition rate was calculated according to the Ct value, and the EC50 value was calculated by four-parameter fitting.
(In general: Quantitative PCR measures a nucleic acid by following its amplification.)

Data set [5] is described as follows: Plasma protein binding assay, rat plasma. Format: in vitro ADME. On the procedure:
as §1, §2, §3, §4

A further data set concerns HepG2.2.15 cells. In words: In vitro cytotoxicity (CCK-8). As to conditions: 6 days treatment. In kind it is cell-based. On the procedure:
2.2. In Vitro Cytotoxicity
A vial of HepG2.2.15 cells (Wuhan Institute of Virology) in good condition and at logarithmic growth phase was washed once with 5 mL of PBS. 2 mL of pancreatin was added. The cells were incubated in a cell incubator for digestion, and observed at times under a microscope. 1 mL of pancreatin was discarded when the cells just fell off, leaving the residual liquid only. The cells were further incubated in the incubator at 37° C. for 8-15 min of digestion and observed under a microscope (whether the cells are round in shape, and whether the cells are separated or adhered). 5 mL of MEM medium was added for cell resuspension. The cell suspension was loaded on a cell counter for counting, and diluted with the complete medium to adjust the cell density to 2×10^5 cells/mL. The cells were seeded on a 96-well plate (pre-coated with 50 μg/mL Collagen I solution) at 100 μL/well using a multi-channel pipette and cultured in a thermostatic CO2 incubator for 24 h. The compound was added, and the medium containing the compound was refreshed every 3 days. A medium containing 0.5% of DMSO but no compound was added to the control wells, and control wells of basal medium were set. After 6 days of treatment, CCK-8 was added at 10 μL/well, and after 1-2 h, the absorbance at 450 nm was measured with a plate reader. The inhibition rate and CC50 were calculated.

Another data set deals with HBV DNA in HepAD38 cells. Briefly: In-vitro inhibitory activity against HBV DNA in HepAD38 cells. Format: cell-based. Particulars: Hepatitis B virus, 144 h, 6 days treatment, intracellular capsid HBV DNA by qPCR, read-out: EC50, anti-HBV activity. On the procedure: as §6, §7, §8
Data set [6] in a line: In vitro stability in mouse liver microsomes. Format: in vitro ADME. As for the experimental part: as §5
Data set [7] can be described thus: In vitro stability in human liver microsomes. Format: in vitro ADME. On the procedure: as §5
The nature of data set [8]: Pharmacokinetic (PK) study in rats. In kind it is in vivo. Particulars: SD rats, PO 10 mg/kg vs IV 5 mg/kg. On the procedure: Pharmacokinetic (PK) Study in Rats […]
The animals to be tested (SD rats) were fasted for 12 h before administration and fed 4 h after administration, and had free access to water before, after and during the experiment.
After administration, about 0.2 mL of blood was collected from the orbit at 0 min, 15 min, 30 min, 1 h, 2 h, 4 h, 6 h, 8 h, 10 h, 24 h, 30 h and 48 h. After anticoagulation with EDTA-K2, the blood samples were transferred to a centrifuge at 4° C. within 30 min and centrifuged at 4000 rpm for 10 min to separate the plasma. All the plasma samples were collected and immediately stored at −20° C. for testing.
50 μL of the plasma sample to be tested and standard curve sample were taken, and 500 μL of acetonitrile solution containing an internal standard (20 mg/mL diazepam) was added. The reaction system was shaken for 5 min and centrifuged at 12,000 rpm for 10 min. 75 μL of supernatant was taken and diluted with 75 μL of ultrapure water. After being mixed well, 1 μL of the resulting sample was taken for LC/MS/MS analysis.

A short description of data set [9]: Plasma protein binding assay, dog plasma. In kind it is in vitro ADME. On the procedure: as §1, §2, §3, §4
A short description of data set [10]: Plasma protein binding assay, human plasma. In kind it is in vitro ADME. On the procedure: as §1, §2, §3, §4
Data set [11] can be described thus: Plasma protein binding assay, mouse plasma. Format: in vitro ADME. On the procedure:
as §1, §2, §3, §4

Where [12] appears, read: High humidity (75% RH), 10 days.
Setting [13] is: High humidity (92.5% RH), 10 days.
[14] abbreviates: High temperature (40° C.), 10 days.
Where [15] appears, read: High temperature (60° C.), 10 days.
[16] abbreviates: High temperature and high humidity (40° C., 75% RH), 10 days.

Consider `Cc1[nH]c(C(=O)C(=O)N[C@@H](C)C(F)(F)F)c(C)c1C(=O)Nc1ccc(F)c(C#N)c1` [(S)-N-(3-cyano-4-fluorophenyl)-2,4-dimethyl-5-(2-oxo-2-((1,1,1-trifluoropropan-2-yl)amino)acetyl)-1H-pyrrol-3-formamide], for which the “Related substance (total impurities)” value in data set [1] (Day 0) is given as 0.57%; in [1] (setting [12]), 0.63%; in data set [1] (setting [13]), 0.65%; in [1] (setting [14]), 0.65%; in data set [1] (setting [15]) it was 0.65%; in [1] (setting [16]), 0.63%. Besides, the “Related substance (total impurities)” value in [1] (Illumination, 10 days) was determined as 0.64%. Further, the Water in data set [1] (Day 0) came to 0.13%; in data set [1] (setting [12]), 0.15%; in data set [1] (setting [13]), 0.17%; in data set [1] (setting [14]), 0.17%; in [1] (setting [15]) it was 0.16%; in data set [1] (setting [16]) it was 0.16%. In addition, the Water in [1] (Illumination, 10 days) turned out to be 0.16%. For the same compound, the “Stability at high humidity, at high temperature or under illumination” value in data set [1] (summary of Table 2) is “good stability”.
As for `Cc1[nH]c(C(=O)C(=O)N[C@@H](C)C(F)(F)F)c(C)c1C(=O)Nc1ccc(F)c(C#N)c1` [Compound of formula I, (S)-N-(3-cyano-4-fluorophenyl)-2,4-dimethyl-5-(2-oxo-2-((1,1,1-trifluoropropan-2-yl)amino)acetyl)-1H-pyrrol-3-formamide], the Binding rate in data set [2] (1 μM) is recorded as 90.2%; in data set [2] (10 μM), 90.5%; in data set [5] (1 μM), 95.0%; in [5] (10 μM), 95.3%; in [9] (1 μM), 94.0%; in data set [9] (10 μM) it was 93.9%. The Binding rate in [10] (1 μM) amounted to 97.3%; in data set [10] (10 μM) it was 97.3%; in [11] (1 μM) it was 85.4%; in data set [11] (10 μM), 85.5%. Further, in data set [3], the “Rat liver microsomes Residual content after 60 min” value came out at 99%. Moreover, the half-maximal effective concentration (EC50) in data set [4] was determined as 17.4 nM; in the data set with HBV DNA in HepAD38 cells, 24 nM. The compound also gave a half-maximal cytotoxic concentration (CC50) in the data set on HepG2.2.15 cells greater than 100000 nM. Besides, the “Mouse liver microsomes Residual content after 60 min” value in [6] is given as 96%. In addition, the “Human liver microsomes Residual content after 60 min” value in [7] stood at 99%. This compound also had a F in [8] of 100%.
